Results from PMC12605013, “SAG1.3-derived Frizzled-targeting small-molecule compounds” (The Journal of Biological Chemistry, 2025).

Columns and labels:
HiBiT-FZD5 = target: T1, HiBiT-FZD5 (Homo sapiens, UniProt Q13467); assay: NanoBiT cell surface expression assay, HiBiT-FZD5; assay type: cell-based; details: 10 μM, overnight exposure
T1 construct: expressed in transfected cells; host or cells: HEK293A cells
Protocol: (§1) Subsequently, 10 μl of either compound 11 or 26 (DD436001) was added at a final concentration of 10 μM. DMSO was added separately as a control. One day after compound or DMSO addition, cells were washed once with HBSS, and 90 μl of HBSS was added to the wells. To measure cell surface expression, a 1:20 dilution of furimazine live cell substrate and 1:20 LgBiT mix (final dilution = 1:200) were prepared in HBSS and 10 μl was added. The plate was incubated for 30 min to allow for HiBiT–LgBiT complementation, and then luminescence was measured on a TECAN Spark multimode microplate reader between 460 and 500 nm (integration time: 200 ms).
(§2) Figure S4. BRET time-course of compound 11 at the FZD5-DEP-Clamp in agonist mode and HiBiT-FZD5/6 surface expression upon compound exposure. (A) Shown is the BRET time-course recorded upon addition of 30 µM compound 11 or vehicle (DMSO). Experiments were performed in HEK293A cells stably expressing the FZD5-DEP-Clamp sensor. […] The timepoint of ligand addition is indicated by a black arrow. (B, C) Impact of compound 11 on FZD cell surface expression. The cell surface pool of transiently-transfected HiBiT-FZD5 (B) and HiBiT-FZD6 (C) was assessed by addition of recombinant LgBiT in combination with detection of NanoBiT luminescence. […]

PANC-1 cells = assay: Cell viability (AlamarBlue) of PANC-1 cells; assay type: cell-based, human; details: one-week treatment; 10 µM
Protocol: HPAF-II cells and PANC-1 cells were seeded in DMEM at a density of 1000 cells per well into a black opaque 96-well plate (Greiner BioOne). After 1 day, the medium was exchanged with complete DMEM containing either compound 11, the porcupine inhibitor C59, or DMSO (vehicle control). After 3 days of incubation (37 °C, 5% CO2), the medium was exchanged once again with DMEM containing the same concentration of ligands or DMSO (vehicle control). Three days after (equal to 7 days after seeding), the medium was removed and 90 μl of fresh DMEM (without any ligands) were added. Last, 10 μl of AlamarBlue HS reagent (Thermo Fisher Scientific; catalog no.: A50100) were added to each well, and the cells were incubated for 4 h at 37 °C inside the incubator (5% CO2). After the incubation step, fluorescence was read using a TECAN Spark multimode microplate reader (excitation: 535 ± 25 nm, emission: 595 ± 35 nm).
For each cell viability experiment, the fluorescence measured in ligand-treated wells was normalized to the average fluorescence from wells treated with vehicle control (DMSO).

[1] = target: T2, firefly luciferase (Fluc) (Photinus pyralis, UniProt P08659); assay: Fluc counter assay (CMV-driven recombinant Fluc in HEK293 cells); assay type: cell-based; details: counter assay for readout interference
T2 construct: expressed in transfected cells; host or cells: HEK293 cells
Protocol: Figure S3. […] Experiments were performed in HEK293 cells.

HiBiT-FZD6 = target: T3, HiBiT-FZD6 (Homo sapiens, UniProt O60353); assay: NanoBiT cell surface expression assay, HiBiT-FZD6; assay type: cell-based; details: 10 μM, overnight exposure
T3 construct: expressed in transfected cells; host or cells: HEK293A cells
T3 sequence (O60353 19-706): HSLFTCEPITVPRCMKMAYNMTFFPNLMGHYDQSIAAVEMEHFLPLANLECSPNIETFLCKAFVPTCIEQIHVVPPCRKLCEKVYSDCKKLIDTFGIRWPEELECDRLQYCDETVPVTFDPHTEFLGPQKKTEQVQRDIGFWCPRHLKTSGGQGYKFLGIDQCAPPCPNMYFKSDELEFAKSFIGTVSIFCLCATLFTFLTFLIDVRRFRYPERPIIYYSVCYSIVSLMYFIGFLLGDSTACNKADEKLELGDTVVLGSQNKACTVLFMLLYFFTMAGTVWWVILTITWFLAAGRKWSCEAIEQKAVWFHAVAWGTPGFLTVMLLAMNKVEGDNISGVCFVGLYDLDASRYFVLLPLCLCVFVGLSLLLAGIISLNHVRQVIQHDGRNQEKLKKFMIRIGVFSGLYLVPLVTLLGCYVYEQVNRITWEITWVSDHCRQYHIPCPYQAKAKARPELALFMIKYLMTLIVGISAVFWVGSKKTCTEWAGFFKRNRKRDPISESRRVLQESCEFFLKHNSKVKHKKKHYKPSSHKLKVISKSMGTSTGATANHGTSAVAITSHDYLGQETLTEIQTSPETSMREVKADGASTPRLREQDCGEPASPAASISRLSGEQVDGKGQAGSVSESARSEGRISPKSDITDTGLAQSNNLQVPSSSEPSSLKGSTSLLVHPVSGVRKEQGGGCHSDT
Protocol: as §1, §2

T2 sequence (P08659 whole entry): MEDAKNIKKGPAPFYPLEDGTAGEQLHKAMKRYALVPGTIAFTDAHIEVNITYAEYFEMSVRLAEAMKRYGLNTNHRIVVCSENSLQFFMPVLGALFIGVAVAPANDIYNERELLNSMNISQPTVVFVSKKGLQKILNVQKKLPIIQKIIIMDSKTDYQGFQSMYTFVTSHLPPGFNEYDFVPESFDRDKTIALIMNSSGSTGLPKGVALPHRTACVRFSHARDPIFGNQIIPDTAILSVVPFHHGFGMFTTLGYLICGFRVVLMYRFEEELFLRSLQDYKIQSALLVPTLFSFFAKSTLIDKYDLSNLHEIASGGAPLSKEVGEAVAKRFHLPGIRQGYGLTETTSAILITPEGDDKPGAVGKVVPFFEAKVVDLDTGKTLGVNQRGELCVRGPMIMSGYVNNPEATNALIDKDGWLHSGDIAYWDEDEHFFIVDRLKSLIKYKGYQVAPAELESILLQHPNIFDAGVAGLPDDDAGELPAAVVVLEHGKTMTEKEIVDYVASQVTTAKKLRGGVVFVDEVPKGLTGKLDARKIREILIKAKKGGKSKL
T1 sequence (Q13467 27-585): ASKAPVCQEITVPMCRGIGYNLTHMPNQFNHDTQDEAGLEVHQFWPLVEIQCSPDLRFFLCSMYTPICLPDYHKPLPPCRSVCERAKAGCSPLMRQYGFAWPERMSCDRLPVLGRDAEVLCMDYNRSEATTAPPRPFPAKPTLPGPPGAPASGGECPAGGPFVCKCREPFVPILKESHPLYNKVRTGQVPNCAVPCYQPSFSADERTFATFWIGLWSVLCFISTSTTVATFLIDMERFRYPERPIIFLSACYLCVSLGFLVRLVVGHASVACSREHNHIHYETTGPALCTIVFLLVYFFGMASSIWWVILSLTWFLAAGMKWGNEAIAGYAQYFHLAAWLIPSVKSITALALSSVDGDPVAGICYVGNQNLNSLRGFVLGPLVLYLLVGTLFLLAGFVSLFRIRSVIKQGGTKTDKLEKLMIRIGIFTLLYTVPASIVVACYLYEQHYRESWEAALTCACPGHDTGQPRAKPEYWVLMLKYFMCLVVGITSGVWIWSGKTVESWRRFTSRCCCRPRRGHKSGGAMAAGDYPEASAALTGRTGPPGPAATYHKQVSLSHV

CC(=O)Nc1cccc(C(=O)NC2CCC(N(Cc3cccc(-c4ccncc4)c3)C(=O)c3sc4ccccc4c3Cl)CC2)c1 (stereo not shown) [compound 11, N-((1r,4r)-4-(3-Acetamidobenzamido)cyclohexyl)-3-chloro-N-(3-(pyridin-4-yl)benzyl)benzo[b]thiophene-2-carboxamide]
Effect on surface levels of HiBiT-FZD5 (HiBiT-FZD5): had no effect
Cell viability of RNF43-wildtype PANC-1 cells (PANC-1 cells): not significantly affected
Interference with Fluc bioluminescence [1]: interferes with Fluc bioluminescence
Effect on surface levels of HiBiT-FZD6 (HiBiT-FZD6): had no effect
